Data on 18 compounds can be found in patent publication US12060349B2, “Glucosylceramide synthase inhibitors” (Genzyme Corporation, priority 2012, dated 2024).

Experiment [1] deals with T1, glucosylceramide synthase (Homo sapiens, UniProt Q16739).
T1 construct: Microsomes were isolated from A375 human melanoma cells; endogenous in cells; host or cells: A375 human melanoma cells (microsomal fraction, 100,000 g pellet)
T1 sequence (Q16739 1-394): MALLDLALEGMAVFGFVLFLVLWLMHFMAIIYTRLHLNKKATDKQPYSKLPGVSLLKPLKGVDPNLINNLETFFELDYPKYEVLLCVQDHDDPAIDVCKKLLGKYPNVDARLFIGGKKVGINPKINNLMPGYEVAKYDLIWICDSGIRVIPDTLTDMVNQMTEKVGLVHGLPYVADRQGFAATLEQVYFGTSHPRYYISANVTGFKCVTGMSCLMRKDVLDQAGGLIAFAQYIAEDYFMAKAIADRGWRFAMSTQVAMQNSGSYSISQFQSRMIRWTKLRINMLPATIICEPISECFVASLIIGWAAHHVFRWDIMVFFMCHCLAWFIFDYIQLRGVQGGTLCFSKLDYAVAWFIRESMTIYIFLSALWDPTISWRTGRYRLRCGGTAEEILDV
The experiment in a line: microsomal assay measuring conversion of ceramide to glucosylceramide by HPLC (GCS IC50). It is filed as biochemical. Particulars: concentration causing 50% inhibition of glucosylceramide synthase activity. In a few lines:
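Microsomal preparation assayed for glucosylceramide synthase by direct HPLC measurement of ceramide conversion to glucosylceramide. GCS IC50 is the compound concentration giving 50% inhibition of enzyme activity.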

The subject of experiment [2] is B16 mouse melanoma cells. Briefly: cell viability in the B16 cell-based assay (Viability, B16 IC50). The following applies: Mus musculus. The procedure, abridged: (§1)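 Two melanoma lines, mouse B16 and human C32, were treated and surface GM3 quantified by antibody immunofluorescence for IC50. A parallel viability readout gives the concentration killing 50% of cells, with values over 10 indicating no cell death.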

Experiment [3] relates to C32 human melanoma cells. The experiment in a line: cell viability in the C32 cell-based assay (Viability, C32 IC50). Particulars: Homo sapiens, concentration causing 50% cell death, values greater than 10 represent a lack of cell death. In a few lines:
as §1

Experiment [4] concerns GM3 expression on the cell surface, C32 human melanoma cells. Briefly: cell based phenotypic assay, cell surface GM3 by antibody mediated immunofluorescence, C32 (GM3 C32 IC50). Particulars: Homo sapiens, 50% inhibition of GM3 expression on the cell surface. The procedure, abridged: (§2)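 B16 mouse and C32 human melanoma cells; cell-surface GM3 measured by antibody-mediated immunofluorescence, giving IC50.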

Experiment [5] has as its system GM3 expression on the cell surface, B16 mouse melanoma cells. The experiment in a line: cell based phenotypic assay, cell surface GM3 by antibody mediated immunofluorescence, B16 (GM3 B16 IC50). The following applies: Mus musculus, 50% inhibition of GM3 expression on the cell surface. The procedure, abridged:
as §2

Where [6] appears, read: B16, read-out: Viability, B16 IC50.
The mark [7] stands for this setting: C32, read-out: Viability, C32 IC50, C32 cells.
The mark [8] stands for this setting: read-out: GM3 C32 IC50, C32 human melanoma cells.
Setting [9] is: read-out: GM3 B16 IC50, B16 mouse melanoma cells.
Where [10] appears, read: B16, B16 cells, concentration causing 50% cell death, values greater than 10 represent a lack of cell death, read-out: Viability, B16 IC50.
[11] abbreviates: C32, C32 cells, read-out: Viability, C32 IC50.
Setting [12] is: C32 human melanoma cells, read-out: GM3 C32 IC50.
Where [13] appears, read: B16 mouse melanoma cells, read-out: GM3 B16 IC50.

pIC50: −log10 of the molar value. Where two headings read alike, the source gives them in different places.

As for `CC1(COc2ccc(-c3ccc(C(C)(C)NC(=O)OC4CN5CCC4CC5)cc3)cc2)COC1` (stereo not drawn) [Example 191, Quinuclidin-3-yl (2-(4′-((3-methyloxetan-3-yl)methoxy)-[1,1′-biphenyl]-4-yl)propan-2-yl)carbamate], the negative-log IC50 (pIC50) in experiment [1] is 8.14; in experiment [2] (setting [6]) it was 5.28; in experiment [3] (setting [7]), 6.00; in experiment [4] (setting [8]), 8.49; in experiment [5] (setting [9]) it was 7.14.
In the case of `CC1(COc2ccc(-c3ccc(C(C)(C)NC(=O)OC4CCN5CCC4CC5)cc3)cc2)COC1` (stereo not drawn) [Example 192, 1-Azabicyclo[3.2.2]nonan-4-yl (2-(4′-((3-methyloxetan-3-yl)methoxy)-[1,1′-biphenyl]-4-yl)propan-2-yl)carbamate], the pIC50 in experiment [1] is 8.24; in experiment [2] (setting [10]) it was 5.23; in experiment [3] (setting [11]), 6.00; in experiment [4] (setting [12]), 8.73; in experiment [5] (setting [13]) it was 7.09.
As to `CC1(COc2ccc(-c3ccc(C(C)(C)NC(=O)N4CCN5CCC4CC5)cc3)cc2)COC1` [Example 193, N-(2-(4′-((3-Methyloxetan-3-yl)methoxy)-[1,1′-biphenyl]-4-yl)propan-2-yl)-1,4-diazabicyclo[3.2.2]nonane-4-carboxamide], the pIC50 in experiment [1] is 6.53; in experiment [2] (setting [10]) it was not above 5.00; in experiment [3] (setting [11]), not above 5.00; in experiment [4] (setting [12]), 7.35; in experiment [5] (setting [13]), 6.50.
For the compound `CC(C)(NC(=O)OC1CN2CCC1CC2)c1ccc(-c2ccc(OCCC3COC3)cc2)cc1` (stereo not drawn) [Example 194, Quinuclidin-3-yl (2-(4′-(2-(oxetan-3-yl)ethoxy)-[1,1′-biphenyl]-4-yl)propan-2-yl)carbamate], the pIC50 in experiment [1] was 7.98; in experiment [2] (setting [6]), 5.00; in experiment [3] (setting [7]), 6.00; in experiment [4] (setting [8]), 8.39; in experiment [5] (setting [9]), 6.94.
As for `CC(C)(NC(=O)OC1CCN2CCC1CC2)c1ccc(-c2ccc(OCCC3COC3)cc2)cc1` (stereo not drawn) [Example 195, 1-Azabicyclo[3.2.2]nonan-4-yl (2-(4′-(2-(oxetan-3-yl)ethoxy)-[1,1′-biphenyl]-4-yl)propan-2-yl)carbamate], the pIC50 was 8.25 in experiment [1]; 5.10 in experiment [2] (setting [10]); 7.00 in experiment [3] (setting [11]); 9.00 in experiment [4] (setting [12]); 7.02 in experiment [5] (setting [13]).
The matching figures for `CC(C)(NC(=O)N1CCN2CCC1CC2)c1ccc(-c2ccc(OCCC3COC3)cc2)cc1` [Example 196, N-(2-(4′-(2-(Oxetan-3-yl)ethoxy)-[1,1′-biphenyl]-4-yl)propan-2-yl)-1,4-diazabicyclo[3.2.2]nonane-4-carboxamide]: 6.27, not above 5.00, 6.00, 7.55 and 6.56.
`COCCOCc1ccc(-c2ccc(C(C)(C)NC(=O)OC3CN4CCC3CC4)cc2)cc1` (stereo not drawn) [Example 197, Quinuclidin-3-yl (2-(4′-((2-methoxyethoxy)methyl)-[1,1′-biphenyl]-4-yl)propan-2-yl)carbamate]: the pIC50 in experiment [1] was 7.49; in experiment [2] (setting [6]), not above 5.00; in experiment [3] (setting [7]) it was not above 5.00; in experiment [4] (setting [8]), 8.01; in experiment [5] (setting [9]), 6.51.
In the case of `COCCOCc1ccc(-c2ccc(C(C)(C)NC(=O)NC3(C)CN4CCC3CC4)cc2)cc1` (stereo not drawn) [Example 198, 1-(2-(4′-((2-Methoxyethoxy)methyl)-[1,1′-biphenyl]-4-yl)propan-2-yl)-3-(3-methylquinuclidin-3-yl)urea], the pIC50 was 7.60 in experiment [1]; not above 5.00 in experiment [2] (setting [10]); not above 5.00 in experiment [3] (setting [11]); 8.49 in experiment [4] (setting [12]); 6.93 in experiment [5] (setting [13]).
Consider `CCC1(NC(=O)NC(C)(C)c2ccc(-c3ccc(COCCOC)cc3)cc2)CN2CCC1CC2` (stereo not drawn) [Example 199, 1-(3-Ethylquinuclidin-3-yl)-3-(2-(4′-((2-methoxyethoxy)methyl)-[1,1′-biphenyl]-4-yl)propan-2-yl)urea], for which the pIC50 was 7.83 in experiment [1]; 6.00 in experiment [2] (setting [10]); 6.00 in experiment [3] (setting [11]); 8.74 in experiment [4] (setting [12]); 7.50 in experiment [5] (setting [13]).
For `COCCOCc1ccc(-c2ccc(C(C)(C)NC(=O)OC3CCN4CCC3CC4)cc2)cc1` (stereo not drawn) [Example 200, 1-Azabicyclo[3.2.2]nonan-4-yl (2-(4′-((2-methoxyethoxy)methyl)-[1,1′-biphenyl]-4-yl)propan-2-yl)carbamate], the pIC50 was 7.62 in experiment [1]; not above 5.00 in experiment [2] (setting [10]); 6.00 in experiment [3] (setting [11]); 8.21 in experiment [4] (setting [12]); 6.66 in experiment [5] (setting [13]).
In the same order, the values of `COCCOCc1ccc(-c2ccc(C(C)(C)NC(=O)NC3(C)CCN4CCC3CC4)cc2)cc1` (stereo not drawn) [Example 201, 1-(2-(4′-((2-Methoxyethoxy)methyl)-[1,1′-biphenyl]-4-yl)propan-2-yl)-3-(4-methyl-1-azabicyclo[3.2.2]nonan-4-yl)urea] are 7.86, not above 5.00, 6.50, 9.12 and 7.64.
In the same order, the values of `COCCOCc1ccc(-c2ccc(C(C)(C)NC(=O)N3CCN4CCC3CC4)cc2)cc1` [Example 202, N-(2-(4′-((2-Methoxyethoxy)methyl)-[1,1′-biphenyl]-4-yl)propan-2-yl)-1,4-diazabicyclo[3.2.2]nonane-4-carboxamide] are 5.63, not above 5.00, not above 5.00, 6.81 and 6.03.
The matching figures for `COCCOCc1ccc(-c2ccc(C3(NC(=O)OC4CCN5CCC4CC5)CC3)cc2)cc1` (stereo not drawn) [Example 204, 1-Azabicyclo[3.2.2]nonan-4-yl (1-(4′-((2-methoxyethoxy)methyl)-[1,1′-biphenyl]-4-yl)cyclopropyl)carbamate]: 7.36, not above 5.00, 5.83, 8.08 and 7.00.
On to `COCCOCc1ccc(-c2ccc(C3(NC(=O)NC4(C)CN5CCC4CC5)CC3)cc2)cc1` (stereo not drawn) [Example 205, 1-(1-(4′-((2-Methoxyethoxy)methyl)-[1,1′-biphenyl]-4-yl)cyclopropyl)-3-(3-methylquinuclidin-3-yl)urea], for which the pIC50 was 7.29 in experiment [1]; not above 5.00 in experiment [2] (setting [10]); 5.75 in experiment [3] (setting [11]); 8.27 in experiment [4] (setting [12]); 6.81 in experiment [5] (setting [13]).
The matching figures for `CCC1(NC(=O)NC2(c3ccc(-c4ccc(COCCOC)cc4)cc3)CC2)CN2CCC1CC2` (stereo not drawn) [Example 206, 1-(3-Ethylquinuclidin-3-yl)-3-(1-(4′-((2-methoxyethoxy)methyl)-[1,1′-biphenyl]-4-yl)cyclopropyl)urea]: 7.56, not above 5.00, 5.75, 8.58 and 7.22.
In the same order, the values of `COCCOCc1ccc(-c2ccc(C3(NC(=O)NC4(C)CCN5CCC4CC5)CC3)cc2)cc1` (stereo not drawn) [Example 207, 1-(1-(4′-((2-Methoxyethoxy)methyl)-[1,1′-biphenyl]-4-yl)cyclopropyl)-3-(4-methyl-1-azabicyclo[3.2.2]nonan-4-yl)urea] are 7.91, not above 5.00, 5.75, 8.86 and 7.50.
In the case of `COCCOCc1ccc(-c2ccc(C3(NC(=O)N[C@]4(C)CN5CCC4CC5)CC3)cc2)cc1` [Example 210, (S)-1-(1-(4′-((2-Methoxyethoxy)methyl)-[1,1′-biphenyl]-4-yl)cyclopropyl)-3-(3-methylquinuclidin-3-yl)urea], the pIC50 in experiment [1] was 7.30; in experiment [2] (setting [10]), not above 5.00; in experiment [3] (setting [11]) it was not above 5.00; in experiment [4] (setting [12]) it was 8.48; in experiment [5] (setting [13]) it was 7.06.
`COCCOCc1ccc(-c2ccc(C3(NC(=O)N[C@@]4(C)CN5CCC4CC5)CC3)cc2)cc1` [Example 211, (R)-1-(1-(4′-((2-Methoxyethoxy)methyl)-[1,1′-biphenyl]-4-yl)cyclopropyl)-3-(3-methylquinuclidin-3-yl)urea]: the pIC50 is 6.03 in experiment [1]; not above 5.00 in experiment [2] (setting [10]); 5.50 in experiment [3] (setting [11]); 7.14 in experiment [4] (setting [12]); 6.17 in experiment [5] (setting [13]).

In general, pIC50 refers to the IC50 on a negative log10 scale, so that one unit is a factor of ten.
